Laboratory results: US10047105B2, “Gyrase inhibitors” (Merck Sharp & Dohme Corp., priority 2009, dated 2018)
Converted amounts (≈) assume the structure as drawn.

Key:
Format in all cases: cell-based
S. aureus ATCC 13709 = assay: MIC, antibacterial potency, S. aureus; details: S. aureus (SA); in µg/mL
S. pneumoniae ATCC 51916 = assay: MIC, S. pneumoniae; details: S. pneumoniae (Spn52); in µg/mL
E. coli 8 ATCC 25922 = assay: MIC, E. coli 8 (wt); details: E. coli 8 (EC8)

SMILES	MIC, SA (S. aureus ATCC 13709)	MIC Spn52 (S. pneumoniae ATCC 51916)	MIC EC8 (E. coli 8 ATCC 25922) [µg/mL]
NC1CN(c2nc(Sc3cnc4cccnc4c3)nc3[nH]c(C4CC4)c(Cl)c23)C1 [701,065]	8	4	16 (≈ 37.7 µM)
CCc1[nH]c2nc(Oc3cc4ncn(C)c4[n+]([O-])c3)nc(Oc3cnc4c(c3)ncn4C)c2c1Cl [701,067]	>64	>64	> 64
CCc1[nH]c2nc(Oc3ccc4cccnc4c3)nc(N3CC[C@@H](N)C3)c2c1Cl [701,070]	4	8	64 (≈ 157 µM)
N[C@@H]1CCN(c2nc(Sc3cnc4ccc[n+]([O-])c4c3)nc3[nH]c(C4CC4)c(Cl)c23)C1 [701,075]	8	8	8 (≈ 17.6 µM)
CCc1[nH]c2nc(SC)nc(N3CC[C@@H](N)C3)c2c1Cl [701,076]	>64	64	> 64
CCc1[nH]c2nc(SC)nc(N3CC[C@@H](N)C3)c2c1C#N [701,077]	>64	>64	> 64
CCc1[nH]c2nc(Oc3cc(C#N)c(OC)c(OC)c3)nc(Oc3ccc4nccnc4c3)c2c1Br [701,081]	<=0.5	<=0.5	> 32
CCc1[nH]c2nc(Sc3cnc(N4CCC4)c([N+](=O)[O-])c3)nc(N3CC[C@@H](N)C3)c2c1Cl [701,089]	2	4	> 64
CCc1[nH]c2nc(Oc3ccc[n+]([O-])c3)nc(Oc3ccc4nccnc4c3)c2c1Br [701,091]	<=0.5	<=0.5	> 64
CCc1[nH]c2nc(Oc3ccc[n+]([O-])c3)nc(Oc3ccc[n+]([O-])c3)c2c1Br [701,092]	<=0.5	2	> 64
CCc1[nH]c2nc(Oc3ccc[n+]([O-])c3)nc(Oc3cccnc3)c2c1Br [701,093]	<=0.5	4	> 32
CCc1[nH]c2nc(Sc3cnc4[nH][nH]c(=O)c4c3)nc(N3CC[C@@H](N)C3)c2c1Cl [701,094]	>64	>64	> 64
CCc1[nH]c2nc(Oc3cccc(S(C)(=O)=O)c3)nc(Oc3ccc4nccnc4c3)c2c1Br [701,095]	<=0.5	<=0.5	> 64
CCc1[nH]c2nc(Oc3cnc(OC)c(OC)c3)nc(Oc3ccc4nccnc4c3)c2c1Br [701,096]	<=0.5	<=0.5	> 64
CCc1[nH]c2nc(Oc3cnc(OC)c(OC)c3)nc(Oc3cnc(OC)c(OC)c3)c2c1Br [701,097]	<=0.5	1	> 64
CCc1[nH]c2nc(Sc3cnc4nccnc4c3)nc(N3CCC4CN[C@H]4C3)c2c1Cl (stereo partly drawn) [701,102]	<=0.5	1.	16 (≈ 35.3 µM)
CCc1[nH]c2nc(Oc3cncnc3)nc(Oc3ccc4c(N5CCOCC5)ncnc4c3)c2c1Br [701,104]	<=0.5	<=0.5	> 32
CCc1[nH]c2nc(Oc3cnc(O)nc3)nc(Oc3cnc(O)nc3)c2c1Br [701,105]	1	2	> 64
CCc1[nH]c2nc(Oc3cnc(N)nc3)nc(Oc3cnc(N)nc3)c2c1Br [701,106]	2	4	> 64
CCc1[nH]c2nc(Oc3cnc(N)nc3)nc(N3CC(CN(C)C)C3)c2c1Cl [701,112]	16	32	> 64
CCc1[nH]c2nc(Oc3ccc4nccnc4c3)nc(N3CC(CN(C)C)C3)c2c1Cl [701,113]	32	32	> 64
CCc1[nH]c2nc(Oc3ccc4nccnc4c3)nc(N3CC(CN(C)C)C3)c2c1Br [701,114]	8	16	> 64
CCc1[nH]c2nc(Sc3cnc4cccnc4c3)nc(N3CCC4CNC4C3)c2c1Cl (stereo not drawn) [701,115]	<=0.5	<=0.5	16 (≈ 35.4 µM)
Cc1[nH]c2nc(Sc3cnc4nccnc4c3)nc(N3CC4C(N)C4C3)c2c1C (stereo not drawn) [701,117]	8	8	> 64
CCc1[nH]c2nc(Sc3cnc4nccnc4c3)nc(N3CC4NC4C3)c2c1Cl (stereo not drawn) [701,118]	4	2	64 (≈ 151 µM)
CCc1[nH]c2nc(Sc3cnc4nccnc4c3)nc(N3CCC(CC)(NC(=O)C(F)(F)F)C3)c2c1Cl (stereo not drawn) [701,120]	4	32	> 64
CCc1[nH]c2nc(Oc3cnc(N)nc3)nc(N3CC4C(N)C4C3)c2c1Cl (stereo not drawn) [701,122]	2	2	32 (≈ 82.7 µM)
CCc1[nH]c2nc(Sc3cnc4cccnc4c3)nc(N3CC4CC(C3)N(C(=O)OC(C)(C)C)C4)c2c1Cl (stereo not drawn) [701,132]	>64	>64	> 64

Now from value to molecule:

MIC, SA (S. aureus ATCC 13709)	MIC Spn52 (S. pneumoniae ATCC 51916)	MIC EC8 (E. coli 8 ATCC 25922) [µg/mL]	SMILES
4	>64	> 64	CCc1[nH]c2nc(Sc3ccc4[nH]c(N)nc(=O)c4c3)nc(N3CC[C@@H](N)C3)c2c1Cl [701,066]
<=0.5	<=0.5	8 (≈ 18.3 µM)	CCc1[nH]c2nc(Sc3ccc4cncnc4c3)nc(N3CC4C(N)C4C3)c2c1Cl (stereo not drawn) [701,069]
8	4	8 (≈ 18.2 µM)	NC1CN(c2nc(Sc3cnc4ccc[n+]([O-])c4c3)nc3[nH]c(C4CC4)c(Cl)c23)C1 [701,074]
<=0.5	16	4 (≈ 8.32 µM)	CCc1[nH]c2nc(Sc3ccc4cc5c(nc4c3)CCOC5)nc(N3CC[C@@H](N)C3)c2c1Cl [701,082]
<=0.5	1	16 (≈ 32.2 µM)	CCc1[nH]c2nc(Sc3ccc4cc5c([n+]([O-])c4c3)CCOC5)nc(N3CC[C@@H](N)C3)c2c1Cl [701,083]
<=0.5	<=0.5	8 (≈ 15.7 µM)	CCc1[nH]c2nc(Sc3ccc4cc5c([n+]([O-])c4c3)CCOC5)nc(N3CC4C(N)C4C3)c2c1Cl (stereo not drawn) [701,084]
<=0.5	<=0.5	> 64	CCc1[nH]c2nc(Sc3ccc4nc(N)n[n+]([O-])c4c3)nc(N3CC[C@@H](N)C3)c2c1Cl [701,087]
1	1	32 (≈ 66.7 µM)	CCc1[nH]c2nc(Sc3cc(C#N)c4c(c3)c(=O)ccn4C)nc(N3CC[C@@H](N)C3)c2c1Cl [701,088]
8	8	> 64	CCc1[nH]c2nc(Sc3ccc4[nH]nnc4c3)nc(N3CC[C@@H](N)C3)c2c1Cl [701,090]
<=0.5	2	16 (≈ 34.2 µM)	CCc1[nH]c2nc(Sc3cnc4ccc[n+]([O-])c4c3)nc(N3CCC4CNC4C3)c2c1Cl (stereo not drawn) [701,116]
32	16	> 64	CCc1[nH]c2nc(Sc3cnc4nccnc4c3)nc(N3C[C@@H](O)[C@@H](N)C3)c2c1Cl [701,119]
<=0.5	<=0.5	4 (≈ 9.48 µM)	CCc1[nH]c2nc(Oc3cnc4cccnc4c3)nc(N3CC4C(N)C4C3)c2c1Cl (stereo not drawn) [701,126]
